From patent publication US9290453B2 (Merck Sharp & Dohme Corp., priority 2010, dated 2016)

molecular target: T1, hCRTH2 (Homo sapiens, UniProt Q9Y5Y4); assay: Radioligand Binding Assay A ([3H]PGD2 filtration binding, HEK-hCRTH2 membranes); conditions: Table A, rated A-D
T1 construct: expressed in transfected cells; host or cells: HEK (human embryonic kidney) cells expressing hCRTH2
T1 sequence (Q9Y5Y4 1-395): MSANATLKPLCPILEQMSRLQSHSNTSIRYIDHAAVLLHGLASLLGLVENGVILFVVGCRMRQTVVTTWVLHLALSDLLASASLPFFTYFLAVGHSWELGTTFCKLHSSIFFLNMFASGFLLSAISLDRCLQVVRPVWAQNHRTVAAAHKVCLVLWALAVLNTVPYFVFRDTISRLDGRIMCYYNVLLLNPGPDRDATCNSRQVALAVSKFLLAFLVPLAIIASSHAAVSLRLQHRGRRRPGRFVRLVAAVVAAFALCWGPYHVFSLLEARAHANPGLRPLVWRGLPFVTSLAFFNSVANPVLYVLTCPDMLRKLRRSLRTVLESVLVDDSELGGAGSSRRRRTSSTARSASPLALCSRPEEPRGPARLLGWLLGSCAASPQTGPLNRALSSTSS
Protocol: Radioligand binding assays were performed at room temperature in 50 mM Tris-HCl pH 7.4, 1 mM EDTA containing 2 mM MnCl2 and 3.0 nM [^3H]PGD2 (New England Nuclear, Boston, Mass.) (171 Ci mmol^−1), in a final volume of 0.2 ml. Competing ligands were diluted in dimethylsulfoxide (Me2SO) that was kept constant at 1% (v/v) of the final incubation volume. The reaction was initiated by the addition of 8-20 μg of membrane protein prepared from a human embryonic kidney (HEK)-hCRTH2 cell line. Total and non-specific binding were determined in the absence and the presence of 10 μM PGD2, respectively. Under these conditions, specific binding (total minus non-specific) of the radioligand to the receptor reached equilibrium within 50 min and was stable up to 180 min. The reaction was routinely conducted for 60 min at room temperature and terminated by rapid filtration through prewetted (0.3% polyethyleneimine) 96-well printed Filtermate™ (Wallac) using a Tomtec® harvester (Hamden, Conn.). After washing with cold buffer, the filter was dried for 2 minutes in microwave, and Meltilex Scintillator sheet (Wallac) was melted on for 2 min. The radioactivity was measured with Betaplate model 1205 (Wallac).

Row | SMILES | Ki [nM]
1 | O=C(O)CCCCc1nc2cc(C(=O)NCc3ccc(OC(F)(F)F)cc3)ccc2cc1-c1ccccc1 [Compound 3, 5-(3-phenyl-7-(4-(trifluoromethoxy)benzylcarbamoyl)quinolin-2-yl)pentanoic acid] | 2.1 to 20
2 | O=C(O)CCCCc1nc2cc(C(=O)N3CCC(c4ccccc4)CC3)ccc2cc1-c1ccccc1 [Compound 3E, 3-phenyl-7-[(4-phenyl-1-piperidinyl)carbonyl]-2-quinolinepentanoic acid] | 2.1 to 20
3 | C[C@@H](NC(=O)c1ccc2cc(-c3ccccc3)c(CCCCC(=O)O)nc2c1)c1ccc(Cl)cc1 [Compound 3F, 7-[[[1(R)-(4-chlorophenyl)ethyl]amino]carbonyl]-3-phenyl-2-quinolinepentanoic acid] | 0.1 to 2
4 | C[C@H](NC(=O)c1ccc2cc(-c3ccccc3)c(CCCCC(=O)O)nc2c1)c1ccc(Cl)cc1 [Compound 3G, 7-[[[1(S)-(4-chlorophenyl)ethyl]amino]carbonyl]-3-phenyl-2-quinolinepentanoic acid] | 2.1 to 20
5 | O=C(O)CCCCc1nc2cc(C(=O)N3CC[C@@H](c4ccccc4)C3)ccc2cc1-c1ccccc1 [Compound 3H, 3-phenyl-7-[(3(S)-phenyl-1-pyrrolidinyl)carbonyl]-2-quinolinepentanoic acid] | 2.1 to 20
6 | O=C(O)CCCCc1nc2cc(C(=O)N3CCC[C@@H](c4ccccc4)C3)ccc2cc1-c1ccccc1 [Compound 3J, 3-phenyl-7-[(3(S)-phenyl-1-piperidinyl)carbonyl]-2-quinolinepentanoic acid] | 20.1 to 200
7 | O=C(O)CCCCc1nc2cc(C(=O)N3CCC[C@H](c4ccccc4)C3)ccc2cc1-c1ccccc1 [Compound 3K, 3-phenyl-7-[(3(R)-phenyl-1-piperidinyl)carbonyl]-2-quinolinepentanoic acid] | 2.1 to 20
8 | O=C(O)CCCCc1nc2cc(C(=O)N3CC(c4ccccc4)C3)ccc2cc1-c1ccccc1 [Compound 3L, 3-phenyl-7-[(3-phenyl-1-azetidinyl)carbonyl]-2-quinolinepentanoic acid] | 0.1 to 2
9 | O=C(O)CCCCc1nc2cc(C(=O)N3CC[C@H](c4ccccc4)C3)ccc2cc1-c1ccccc1 [Compound 3i, 3-phenyl-7-[(3(R)-phenyl-1-pynolidinyl)carbonyl]-2-quinolinepentanoic acid] | 2.1 to 20
10 | O=C(O)CCCCc1nc2cc(C(=O)NCc3cccc(Cl)c3)ccc2cc1-c1ccccc1 [Compound 4, 5-(7-(3-chlorobenzylcarbamoyl)-3-phenylquinolin-2-yl)pentanoic acid] | 0.1 to 2
11 | C[C@@H](NC(=O)c1ccc2cc(-c3ccccc3)c(CCCCC(=O)O)nc2c1)c1ccc(F)cc1 [Compound 4E, (R)-5-(7-(1-(4-fluorophenyl)ethylcarbamoyl)-3-phenylquinolin-2-yl)pentanoic acid] | 0.1 to 2
12 | C[C@@H](NC(=O)c1ccc2nc(-c3ccc(F)cc3)c(CCCCC(=O)O)cc2c1)c1ccc(Cl)cc1 [Compound 5, 6-[[[1(R)-(4-chlorophenyl)ethyl]amino]carbonyl]-2-(4-fluorophenyl)-3-quinolinepentanoic acid] | 2.1 to 20

Continued, values first:

Row | Ki [nM] | SMILES
13 | 2.1 to 20 | O=C(O)CCCCc1cc2cc(C(=O)NC(c3ccccc3)c3ccccc3)ccc2nc1-c1ccc(F)cc1 [Compound 5AA, 5-(6-(benzhydrylcarbamoyl)-2-(4-fluorophenyl)quinolin-3-yl)pentanoic acid]
14 | 2.1 to 20 | C[C@@H](CNC(=O)c1ccc2nc(-c3ccc(F)cc3)c(CCCCC(=O)O)cc2c1)c1ccccc1 [Compound 5AB, (R)-5-(2-(4-fluorophenyl)-6-((2-phenylpropyl)carbamoyl)quinolin-3-yl)pentanoic acid]
15 | 2.1 to 20 | C[C@H](CNC(=O)c1ccc2nc(-c3ccc(F)cc3)c(CCCCC(=O)O)cc2c1)c1ccccc1 [Compound 5AC, (S)-5-(2-(4-fluorophenyl)-6-((2-phenylpropyl)carbamoyl)quinolin-3-yl)pentanoic acid]
16 | 2.1 to 20 | C[C@@H](NC(=O)c1ccc2nc(-c3ccc(F)cc3)c(CCCCC(=O)O)cc2c1)c1ccc(F)cc1 [Compound 5D, 2-(4-fluorophenyl)-6-[[[1(R)-(4-fluorophenyl)ethyl]amino]carbonyl]-3-quinolinepentanoic acid]
17 | 2.1 to 20 | O=C(O)CCCCc1cc2cc(C(=O)N[C@@H]3CCc4ccccc43)ccc2nc1-c1ccc(F)cc1 [Compound 5E, 6-[[(2,3-dihydro-1H-inden-1(R)-yl)amino]carbonyl]-2-(4-fluorophenyl)-3-quinolinepentanoic acid]
18 | 2.1 to 20 | O=C(O)CCCCc1cc2cc(C(=O)N[C@@H]3CCc4ccc(F)cc43)ccc2nc1-c1ccc(F)cc1 [Compound 5F, 6-[[(6-fluoro-2,3-dihydro-1H-inden-1(R)-yl)amino]carbonyl]-2-(4-fluorophenyl)-3-quinolinepentanoic acid]
19 | 2.1 to 20 | O=C(O)CCCCc1cc2cc(C(=O)N[C@@H]3CCCc4ccccc43)ccc2nc1-c1ccc(F)cc1 [Compound 5G, 2-(4-fluorophenyl)-6-[[(1,2,3,4-tetrahydro-1(R)-naphthalenyl)amino]carbonyl]-3-quinolinepentanoic acid]
20 | 2.1 to 20 | O=C(O)CCCCc1cc2cc(C(=O)N[C@@H]3CCCc4ccc(F)cc43)ccc2nc1-c1ccc(F)cc1 [Compound 5H, 2-(4-fluorophenyl)-6-[[(7-fluoro-1,2,3,4-tetrahydro-1(R)-naphthalenyl)amino]carbonyl]-3-quinolinepentanoic acid]
21 | 2.1 to 20 | C[C@H](NC(=O)c1ccc2nc(-c3ccc(F)cc3)c(CCCCC(=O)O)cc2c1)c1ccc(F)cc1 [Compound 5J, 2-(4-fluorophenyl)-6-[[[1(S)-(4-fluorophenyl)ethyl]amino]carbonyl]-3-quinolinepentanoic acid]
22 | 2.1 to 20 | O=C(O)CCCCc1cc2cc(C(=O)N[C@H]3CCc4ccccc43)ccc2nc1-c1ccc(F)cc1 [Compound 5K, 6-[[(2,3-dihydro-1H-inden-1(S)-yl)amino]carbonyl]-2-(4-fluorophenyl)-3-quinolinepentanoic acid]
23 | 2.1 to 20 | O=C(O)CCCCc1cc2cc(C(=O)N[C@H]3CCc4ccc(F)cc43)ccc2nc1-c1ccc(F)cc1 [Compound 5L, 6-[[(6-fluoro-2,3-dihydro-1H-inden-1(S)-yl)amino]carbonyl]-2-(4-fluorophenyl)-3-quinolinepentanoic acid]
24 | 2.1 to 20 | O=C(O)CCCCc1cc2cc(C(=O)N[C@H]3CCCc4ccccc43)ccc2nc1-c1ccc(F)cc1 [Compound 5M, 2-(4-fluorophenyl)-6-[[(1,2,3,4-tetrahydro-1(S)-naphthalenyl)amino]carbonyl]-3-quinolinepentanoic acid]
25 | 20.1 to 200 | O=C(O)CCCCc1cc2cc(C(=O)N[C@H]3CCCc4ccc(F)cc43)ccc2nc1-c1ccc(F)cc1 [Compound 5N, 2-(4-fluorophenyl)-6-[[(7-fluoro-1,2,3,4-tetrahydro-1(S)-naphthalenyl)amino]carbonyl]-3-quinolinepentanoic acid]
26 | 2.1 to 20 | O=C(O)CCCCc1cc2cc(C(=O)N[C@@H]3CCCc4cc(Cl)ccc43)ccc2nc1-c1ccc(F)cc1 [Compound 5P, 6-[[(6-chloro-1,2,3,4-tetrahydro-1(R)-naphthalenyl)amino]carbonyl]-2-(4-fluorophenyl)-3-quinolinepentanoic acid]

same assay, conditions: values in text

Row | Ki [nM] | SMILES
27 | 2.7 | O=C(O)CCCCc1nc2cc(C(=O)N3CC[C@@H](c4ccccc4)C3)ccc2cc1-c1ccccc1 [Compound 3H, 3-phenyl-7-[(3(S)-phenyl-1-pyrrolidinyl)carbonyl]-2-quinolinepentanoic acid]
28 | 13.6 | O=C(O)CCCCc1cc2cc(C(=O)N[C@@H]3CCc4ccc(F)cc43)ccc2nc1-c1ccc(F)cc1 [Compound 5F, 6-[[(6-fluoro-2,3-dihydro-1H-inden-1(R)-yl)amino]carbonyl]-2-(4-fluorophenyl)-3-quinolinepentanoic acid]
29 | 2.6 | O=C(O)CCCCc1cc2cc(C(=O)N[C@@H]3CCCc4ccccc43)ccc2nc1-c1ccc(F)cc1 [Compound 5G, 2-(4-fluorophenyl)-6-[[(1,2,3,4-tetrahydro-1(R)-naphthalenyl)amino]carbonyl]-3-quinolinepentanoic acid]
30 | 25.5 | O=C(O)CCCCc1cc2cc(C(=O)N[C@H]3CCCc4ccc(F)cc43)ccc2nc1-c1ccc(F)cc1 [Compound 5N, 2-(4-fluorophenyl)-6-[[(7-fluoro-1,2,3,4-tetrahydro-1(S)-naphthalenyl)amino]carbonyl]-3-quinolinepentanoic acid]
